Patent publication US20040248775A1, “Methods for screening inhibitors of apoptosis” (Wyeth, priority 2003, published 2004)

Target: T1, His6-NALP1 wild-type (Homo sapiens, UniProt Q9C000)
T1 construct: made in house; host or cells: COS-7 cells, transient transfection, Ni-NTA purification
T1 sequence (Q9C000 1-1473): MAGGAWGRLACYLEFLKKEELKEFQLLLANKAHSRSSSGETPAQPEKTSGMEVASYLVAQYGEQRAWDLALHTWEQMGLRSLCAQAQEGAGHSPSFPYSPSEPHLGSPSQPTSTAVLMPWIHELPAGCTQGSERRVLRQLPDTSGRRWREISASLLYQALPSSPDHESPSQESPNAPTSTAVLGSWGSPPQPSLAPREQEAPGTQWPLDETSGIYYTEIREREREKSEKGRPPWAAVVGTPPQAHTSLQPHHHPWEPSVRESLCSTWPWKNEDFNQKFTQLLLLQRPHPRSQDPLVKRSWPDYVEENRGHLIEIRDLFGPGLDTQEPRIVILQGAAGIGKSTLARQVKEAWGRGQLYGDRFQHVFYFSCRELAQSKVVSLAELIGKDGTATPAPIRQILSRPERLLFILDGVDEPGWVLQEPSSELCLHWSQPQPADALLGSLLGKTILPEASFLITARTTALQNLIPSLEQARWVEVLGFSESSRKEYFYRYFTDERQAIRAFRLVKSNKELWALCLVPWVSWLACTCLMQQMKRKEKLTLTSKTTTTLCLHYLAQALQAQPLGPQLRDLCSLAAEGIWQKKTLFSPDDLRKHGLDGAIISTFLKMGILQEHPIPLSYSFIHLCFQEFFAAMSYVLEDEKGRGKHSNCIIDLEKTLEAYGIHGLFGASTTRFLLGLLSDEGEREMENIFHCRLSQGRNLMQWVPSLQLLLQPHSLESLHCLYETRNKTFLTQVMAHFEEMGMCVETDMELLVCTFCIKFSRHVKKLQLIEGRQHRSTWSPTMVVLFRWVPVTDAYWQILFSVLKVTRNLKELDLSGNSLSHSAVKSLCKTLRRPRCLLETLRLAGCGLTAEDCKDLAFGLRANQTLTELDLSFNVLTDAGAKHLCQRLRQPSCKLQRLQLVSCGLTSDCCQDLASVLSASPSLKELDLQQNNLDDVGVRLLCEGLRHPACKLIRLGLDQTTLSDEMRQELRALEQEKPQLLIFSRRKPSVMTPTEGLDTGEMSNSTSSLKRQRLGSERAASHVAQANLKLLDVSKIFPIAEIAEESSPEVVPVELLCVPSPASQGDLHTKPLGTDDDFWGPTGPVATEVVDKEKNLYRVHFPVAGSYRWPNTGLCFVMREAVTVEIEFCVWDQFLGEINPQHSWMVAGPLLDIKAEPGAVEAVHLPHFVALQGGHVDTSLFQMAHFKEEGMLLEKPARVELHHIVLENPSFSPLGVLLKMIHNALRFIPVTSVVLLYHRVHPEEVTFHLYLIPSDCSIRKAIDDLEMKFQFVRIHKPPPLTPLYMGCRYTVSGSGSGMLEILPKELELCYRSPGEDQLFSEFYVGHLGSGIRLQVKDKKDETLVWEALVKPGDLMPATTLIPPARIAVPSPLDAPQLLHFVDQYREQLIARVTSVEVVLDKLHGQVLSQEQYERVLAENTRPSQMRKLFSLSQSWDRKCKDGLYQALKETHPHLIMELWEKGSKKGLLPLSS
Assay: Ni flashplate dATPα35S binding assay, wild-type His6-NALP1
Settings: 8 nM dATPα35S displaced by non-radiolabeled dATP
Method: Production of purified NALP-Flashplate binding assay. NALP1 protein for in vitro binding assays was purified from transiently transfected cells. COS-7 cells were plated in DMEM, 10% fetal calf serum with amino acid supplements and antibiotics and allowed to grow to approximately 50% confluency. Large-scale preparations were performed in Cell Factories (NUNC) with approximately 600 μg plasmid DNA. Polyfect transfection reagent (Qiagen) was used as described by the manufacturer. After 24 hours, cells were collected by trypsinization, washed with fresh medium and then with PBS. Cells were lysed by resuspension in 10× cell volume of lysis buffer (140 mM NaCl, 0.1% Triton-X100, 0.1 mM DTT, 20 mM HEPES at pH 7.4 and protease inhibitor cocktail (Roche Diagnostics BmbH)). Lysates were centrifuged at approximately 7400×g for 30 minutes and supernatants were supplemented with glycerol to a final concentration of 10% and stored at −70° C. until purification. Protein concentrations were measured and samples normalized. Extracts were mixed with 1 ml Ni-NTA agarose equilibrated with the same buffer for 1 hour at 4° C. in the tube. Disposable columns were filled with the resin and flow-through collected. […] Reactions were stopped by aspirating solutions and washed once with Buffer B. Plates were counted in a Top Count scintillation counter (Packard).

- specific binding of dATP to wild-type NALP1: specific binding
SMILES: Nc1ncnc2c1ncn2[C@H]1C[C@H](O)[C@@H](COP(=O)(O)OP(=O)(O)OP(=O)(O)O)O1 [dATP]
